Patent US20110104821A1, “ABeta-OLIGOMER MEASUREMENT METHOD” (priority 2008, published 2011)

Target: high molecular oligomer Aβ (Aβ1-42) (Homo sapiens, UniProt P05067)
Assay: Influence of test compound on Aβ oligomer formation, measured by BAN50a / HRP-labeled BAN50a ELISA
Format: biochemical
Settings: Curcumin with various concentrations added to Aβ42 solutions; incubated at 4° C. for a whole day and night; ELISA of Example 1
Method: ELISA using BAN50a and HRP labeled BAN50a (quantification of oligomer Aβ) was performed by the following steps.
(1) BAN50a antibody was dissolved in coating buffer A to a concentration of 10 μg/ml (75 μl/well), added to an EIA96 well plate (high maximum binding clear plate, Greiner), and incubated in a refrigerating room (about 4° C.) for a whole day and night. (2) After washing 3 times with PBS (calcium, magnesium-free; hereinafter sometimes to be abbreviated as PBS(−)), blocking buffer B was added to 100 μL/well and the plate was stored. (3) On the day of experiment, blocking buffer B was discarded and the plate was washed twice with PBS(−), and 25 μl of buffer C was added. […] (5) The sample was incubated in a refrigerating room (about 4° C.) for a whole day and night. (6) The plate was washed 4 times with PBS(−). […] (11) Thereafter, 1 M phosphoric acid solution (75 μl/well) was added to the reacted substrate solution to terminate the reaction, and OD450 was measured by a multi-label counter (PerkinElmer). […]
(3) The tube was incubated at 4° C. for a whole day and night. (4) The reaction mixture was diluted 100-fold with buffer C (mentioned above), and measured by the aforementioned ELISA. (5) The inhibitory rate was calculated with that of the vehicle group as 100%. […]

high molecular oligomer Aβ (Aβ1-42), sequence (P05067 672-713): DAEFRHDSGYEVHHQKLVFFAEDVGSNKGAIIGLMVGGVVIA

signal of oligomer Aβ (inhibition of formation of high molecular oligomer Aβ): specifically decreased
Structure (SMILES): COc1cc(/C=C/C(=O)CC(=O)/C=C/c2ccc(O)c(OC)c2)ccc1O [curcumin]
